Usually IC50 stands for the concentration at which inhibition is half-maximal. Read a high IC50 as lower potency.

Each structure is given as a SMILES string.

The target of the assay is T1, human TLR8 (Homo sapiens, UniProt Q9NR97).
T1 construct: host or cells: HEK-Blue cells
T1 sequence (Q9NR97 27-1041): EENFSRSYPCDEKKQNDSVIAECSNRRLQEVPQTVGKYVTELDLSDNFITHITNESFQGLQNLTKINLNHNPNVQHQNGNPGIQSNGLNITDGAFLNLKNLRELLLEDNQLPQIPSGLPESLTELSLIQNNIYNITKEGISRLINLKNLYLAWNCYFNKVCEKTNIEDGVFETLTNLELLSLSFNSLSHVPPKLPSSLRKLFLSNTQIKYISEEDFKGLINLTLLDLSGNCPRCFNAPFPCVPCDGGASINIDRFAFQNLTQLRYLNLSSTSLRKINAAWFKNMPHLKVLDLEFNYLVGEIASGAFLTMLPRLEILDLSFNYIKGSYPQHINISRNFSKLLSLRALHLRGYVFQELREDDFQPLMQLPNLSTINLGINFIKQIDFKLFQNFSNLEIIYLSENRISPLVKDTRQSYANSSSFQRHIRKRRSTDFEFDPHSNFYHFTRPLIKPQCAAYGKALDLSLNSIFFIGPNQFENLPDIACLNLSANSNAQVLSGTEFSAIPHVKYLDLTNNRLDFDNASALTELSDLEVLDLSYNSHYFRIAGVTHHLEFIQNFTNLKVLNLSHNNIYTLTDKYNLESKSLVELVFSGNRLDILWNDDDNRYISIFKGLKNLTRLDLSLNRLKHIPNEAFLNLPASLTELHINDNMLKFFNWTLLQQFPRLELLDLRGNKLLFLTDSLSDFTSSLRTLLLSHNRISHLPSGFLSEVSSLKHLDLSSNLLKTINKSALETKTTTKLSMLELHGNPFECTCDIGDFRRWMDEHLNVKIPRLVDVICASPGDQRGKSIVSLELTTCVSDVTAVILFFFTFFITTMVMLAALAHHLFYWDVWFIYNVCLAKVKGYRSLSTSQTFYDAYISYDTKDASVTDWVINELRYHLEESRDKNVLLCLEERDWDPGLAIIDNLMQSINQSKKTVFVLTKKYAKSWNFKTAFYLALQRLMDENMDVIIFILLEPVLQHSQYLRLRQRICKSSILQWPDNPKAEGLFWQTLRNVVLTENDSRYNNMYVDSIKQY
The assay is described as follows: TLR8 inhibition reporter assay (HEK-Blue SEAP). The class given is cell-based. Particulars: HEK-Blue cells overexpressing human TLR8, R848 15.9 μM, 22 hour incubation. Summed up: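 Compound treatment: 30 min, RT, 0.05 nM–50 μM final. Agonist: TLR7 gardiquimod 7.5 μM; TLR8 R848 15.9 μM; TLR9 ODN2006 5 nM. Incubation 22 h, 37 °C, 5% CO2. Readout SEAP, HEK-Blue Detection.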
Compound `COc1cc(-c2cc3[nH]c(=O)n([C@H]4CC[C@H](NC5CCN(C(C)C)CC5)CC4)c3cc2C(C)C)cn2ncnc12` [Example 207, 6-isopropyl-1-((1r,4r)-4-((1-isopropylpiperidin-4-yl)amino)cyclohexyl)-5-(8-methoxy-[1,2,4]triazolo[1,5-a]pyridin-6-yl)-1,3-dihydro-2H-benzo[d]imidazol-2-one] yielded an IC50 of 4.15 nM.

`COc1cc(-c2cc3[nH]c(=O)n(C4CCC(N5CC(OC)C5)CC4)c3cc2C(C)C)cn2ncnc12` (stereo not shown) [Example 238, 6-isopropyl-5-(8-methoxy-[1,2,4]triazolo[1,5-a]pyridin-6-yl)-1-(4-(3-methoxyazetidin-1-yl)cyclohexyl)-1,3-dihydro-2H-benzo[d]imidazol-2-one] gave a half-inhibitory concentration (IC50) of 0.26 nM.

Compound `COCCN1CCC[C@@H](n2c(=O)[nH]c3cc(-c4cc(OC)c5ncnn5c4)c(C(C)C)cc32)C1` [Example 226, (R)-6-isopropyl-5-(8-methoxy-[1,2,4]triazolo[1,5-a]pyridin-6-yl)-1-(1-(2-methoxyethyl)piperidin-3-yl)-1,3-dihydro-2H-benzo[d]imidazol-2-one] returned an IC50 of 4.15 nM.

Turning to `COc1cc(-c2cc3[nH]c(=O)n([C@H]4CC[C@H](NC5COC5)CC4)c3cc2C(C)C)cn2ncnc12` [Example 201, 6-isopropyl-5-(8-methoxy-[1,2,4]triazolo[1,5-a]pyridin-6-yl)-1-((1r,4r)-4-(oxetan-3-ylamino)cyclohexyl)-1,3-dihydro-2H-benzo[d]imidazol-2-one], the IC50 is 1.54 nM.

Regarding `Cc1c(-c2cc3[nH]c(=O)n([C@H]4CC[C@@H](NCC(C)(C)C)CC4)c3cc2C(C)C)cn2ncnc2c1C` [Example 190, 5-(7,8-dimethyl-[1,2,4]triazolo[1,5-a]pyridin-6-yl)-6-isopropyl-1-((1s,4s)-4-(neopentylamino)cyclohexyl)-1,3-dihydro-2H-benzo[d]imidazol-2-one], 0.08 nM corresponded to half-maximal inhibition (IC50).

On to `COCCN1CCC[C@@H](n2c(=O)[nH]c3cc(-c4cc(OC)c5ncnn5c4)c(C(C)C)cc32)C1` (single isomer, unassigned) [Example 225], for which the IC50 was determined as 3.37 nM. This IC50 is about 42-fold higher than that of the compound before.

`COc1cc(-c2cc3[nH]c(=O)n([C@@H]4CCCN(C5CCOC5)C4)c3cc2C(C)C)cn2ncnc12` (stereo partly drawn) [Example 216, 6-isopropyl-5-(8-methoxy-[1,2,4]triazolo[1,5-a]pyridin-6-yl)-1-((3R)-1-(tetrahydrofuran-3-yl)piperidin-3-yl)-1,3-dihydro-2H-benzo[d]imidazol-2-one] had a 50% inhibitory concentration (IC50) of 26.4 nM.

As to `CCc1cc2c(cc1-c1cc(OC)c3ncnn3c1)[nH]c(=O)n2[C@@H]1CCCN(CC(C)C)C1` [Example 177, (R)-6-ethyl-1-(1-isobutylpiperidin-3-yl)-5-(8-methoxy-[1,2,4]triazolo[1,5-a]pyridin-6-yl)-1,3-dihydro-2H-benzo[d]imidazol-2-one], the IC50 is 4.34 nM.

The compound `COc1cc(-c2cc3[nH]c(=O)n([C@H]4CC[C@H](NC(C)C)CC4)c3cc2C(C)C)cn2ncnc12` [Example 203, 6-isopropyl-1-((1r,4s)-4-(isopropylamino)cyclohexyl)-5-(8-methoxy-[1,2,4]triazolo[1,5-a]pyridin-6-yl)-1,3-dihydro-2H-benzo[d]imidazol-2-one] returned an IC50 of 1.34 nM.

`COc1cc(-c2cc3[nH]c(=O)n([C@H]4CC[C@@H](NC(C)C)CC4)c3cc2C(C)C)cn2ncnc12` [Example 192, 6-isopropyl-1-((1s,4s)-4-(isopropylamino)cyclohexyl)-5-(8-methoxy-[1,2,4]triazolo[1,5-a]pyridin-6-yl)-1,3-dihydro-2H-benzo[d]imidazol-2-one] came in with an IC50 of 0.44 nM.

In turn, `COc1cc(-c2cc3[nH]c(=O)n([C@@H]4CCCN(C5CCOC5)C4)c3cc2C(C)C)cn2ncnc12` (stereo partly drawn) [Example 217, 6-isopropyl-5-(8-methoxy-[1,2,4]triazolo[1,5-a]pyridin-6-yl)-1-((3R)-1-(tetrahydrofuran-3-yl)piperidin-3-yl)-1,3-dihydro-2H-benzo[d]imidazol-2-one] came in with an IC50 of 5.4 nM.

`COc1cc(-c2cc3[nH]c(=O)n([C@@H]4CCCN(CC5CCCC5)C4)c3cc2C(C)C)cn2ncnc12` [Example 211, (R)-1-(1-(cyclopentylmethyl)piperidin-3-yl)-6-isopropyl-5-(8-methoxy-[1,2,4]triazolo[1,5-a]pyridin-6-yl)-1,3-dihydro-2H-benzo[d]imidazol-2-one] returned an IC50 of 0.05 nM.

Take `COc1cc(-c2cc3[nH]c(=O)n([C@@H]4CCCN(CCC(C)(C)C)C4)c3cc2C(C)C)cn2ncnc12` [Example 210, (R)-1-(1-(3,3-dimethylbutyl)piperidin-3-yl)-6-isopropyl-5-(8-methoxy-[1,2,4]triazolo[1,5-a]pyridin-6-yl)-1,3-dihydro-2H-benzo[d]imidazol-2-one]: the IC50 came to 3.3 nM.

`COc1c(C)c(-c2cc3[nH]c(=O)n(C4CCC(N5CCC(F)(F)CC5)CC4)c3cc2C(C)C)cn2ncnc12` (single isomer, unassigned) [Example 229, 1-(4-(4,4-difluoropiperidin-1-yl)cyclohexyl)-6-isopropyl-5-(8-methoxy-7-methyl-[1,2,4]triazolo[1,5-a]pyridin-6-yl)-1,3-dihydro-2H-benzo[d]imidazol-2-one] came in with an IC50 of 2.18 nM.

`CCc1cc2c(cc1-c1cc(OC)c3ncnn3c1)[nH]c(=O)n2[C@@H]1CCCN(C(=O)CN(C)C)C1` [Example 228, (R)-1-(1-(dimethylglycyl)piperidin-3-yl)-6-ethyl-5-(8-methoxy-[1,2,4]triazolo[1,5-a]pyridin-6-yl)-1,3-dihydro-2H-benzo[d]imidazol-2-one] showed an IC50 of 38.7 nM. Compared with the last compound, the IC50 is about 18-fold higher.

As for `COc1cc(-c2cc3[nH]c(=O)n(C4CCC(N5CCNC(=O)C5)CC4)c3cc2C(C)C)cn2ncnc12` (single isomer, unassigned) [Example 234, 6-isopropyl-5-(8-methoxy-[1,2,4]triazolo[1,5-a]pyridin-6-yl)-1-(4-(3-oxopiperazin-1-yl)cyclohexyl)-1,3-dihydro-2H-benzo[d]imidazol-2-one], the half-maximal inhibitory concentration (IC50) was determined as 10.5 nM.

The compound `COc1cc(-c2cc3[nH]c(=O)n(C4CCC(N5CCCC5)CC4)c3cc2C(C)C)cn2ncnc12` (stereo not shown) [Example 232, 6-isopropyl-5-(8-methoxy-[1,2,4]triazolo[1,5-a]pyridin-6-yl)-1-(4-(pyrrolidin-1-yl)cyclohexyl)-1,3-dihydro-2H-benzo[d]imidazol-2-one] gave an IC50 of 0.44 nM.

The compound `CCc1cc2c(cc1-c1cc(OC)c3ncnn3c1)[nH]c(=O)n2[C@@H]1CCCN(CCOC)C1` [Example 227, (R)-6-ethyl-5-(8-methoxy-[1,2,4]triazolo[1,5-a]pyridin-6-yl)-1-(1-(2-methoxyethyl)piperidin-3-yl)-1,3-dihydro-2H-benzo[d]imidazol-2-one] yielded a half-maximal inhibitory concentration (IC50) of 4.42 nM.

For `CCc1cc2c(cc1-c1cc(OC)c3ncnn3c1)[nH]c(=O)n2[C@@H]1CCCN(CCC(C)(C)C)C1` [Example 208, (R)-1-(1-(3,3-dimethylbutyl)piperidin-3-yl)-6-ethyl-5-(8-methoxy-[1,2,4]triazolo[1,5-a]pyridin-6-yl)-1,3-dihydro-2H-benzo[d]imidazol-2-one], half-maximal inhibition (IC50) was put at 3.77 nM.

As for `COc1cc(-c2cc3[nH]c(=O)n(C4CCC(N5CCC6(CC5)COC6)CC4)c3cc2C(C)C)cn2ncnc12` (stereo not shown) [Example 240, 1-(4-(2-oxa-7-azaspiro[3.5]nonan-7-yl)cyclohexyl)-6-isopropyl-5-(8-methoxy-[1,2,4]triazolo[1,5-a]pyridin-6-yl)-1,3-dihydro-2H-benzo[d]imidazol-2-one], the IC50 is 0.13 nM.

For the compound `COc1cc(-c2cc3[nH]c(=O)n(C4CCC(N5CC6(CCOCC6)C5)CC4)c3cc2C(C)C)cn2ncnc12` (single isomer, unassigned) [Example 236, 1-(4-(7-oxa-2-azaspiro[3.5]nonan-2-yl)cyclohexyl)-6-isopropyl-5-(8-methoxy-[1,2,4]triazolo[1,5-a]pyridin-6-yl)-1,3-dihydro-2H-benzo[d]imidazol-2-one], the IC50 came to 0.35 nM.

Compound `CCc1cc2c(cc1-c1cc(OC)c3ncnn3c1)[nH]c(=O)n2[C@@H]1CCCN(CC2CCCC2)C1` [Example 209, (R)-1-(1-(cyclopentylmethyl)piperidin-3-yl)-6-ethyl-5-(8-methoxy-[1,2,4]triazolo[1,5-a]pyridin-6-yl)-1,3-dihydro-2H-benzo[d]imidazol-2-one] showed an IC50 of 20.4 nM.

For the origin of these results see US12187723B2 (BRISTOL-MYERS SQUIBB COMPANY, priority 2019, dated 2025).
